Results as given in PubChem BioAssay (NCI).
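Protocol summary: plate cells (96-well), add compound at 5 concentrations, incubate 48 h, interpolate endpoints linearly. TGI marks complete inhibition of growth.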

Columns and labels:
Test in all cases: NCI anticancer screen, dose series, 48 h
KM20L2 colon = test system: KM20L2 colon
OVCAR-3 ovarian = test system: OVCAR-3 ovarian
LOX IMVI melanoma = test system: LOX IMVI melanoma
UO-31 renal = test system: UO-31 renal
HOP-18 NSCLC = test system: HOP-18 NSCLC
UACC-62 melanoma = test system: UACC-62 melanoma
CAKI-1 renal = test system: CAKI-1 renal
HT29 colon = test system: HT29 colon
HOP-62 NSCLC = test system: HOP-62 NSCLC
COLO 205 colon = test system: COLO 205 colon
NCI-H23 lung = test system: NCI-H23 lung
OVCAR-4 ovarian = test system: OVCAR-4 ovarian
LXFL 529 NSCLC = test system: LXFL 529 NSCLC
HCT-116 colon = test system: HCT-116 colon
786-0 renal = test system: 786-0 renal
TK-10 renal = test system: TK-10 renal
SK-MEL-5 melanoma = test system: SK-MEL-5 melanoma
SF-268 CNS = test system: SF-268 CNS
RPMI-8226 leukemia = test system: RPMI-8226 leukemia
CCRF-CEM leukemia = test system: CCRF-CEM leukemia
PC-3 prostate = test system: PC-3 prostate
DMS 273 small cell lung = test system: DMS 273 small cell lung
M14 melanoma = test system: M14 melanoma
HL-60(TB) leukemia = test system: HL-60(TB) leukemia
K-562 leukemia = test system: K-562 leukemia
SR leukemia = test system: SR leukemia
IGROV1 ovarian = test system: IGROV1 ovarian
M19-MEL melanoma = test system: M19-MEL melanoma
UACC-257 melanoma = test system: UACC-257 melanoma
MDA-MB-435 = test system: MDA-MB-435
SW-620 colon = test system: SW-620 colon
OVCAR-5 ovarian = test system: OVCAR-5 ovarian
SF-295 CNS = test system: SF-295 CNS
A549 NSCLC = test system: A549 NSCLC
KM12 colon = test system: KM12 colon
MALME-3M melanoma = test system: MALME-3M melanoma
SK-MEL-28 melanoma = test system: SK-MEL-28 melanoma
MDA-MB-231 breast = test system: MDA-MB-231 breast
ACHN renal = test system: ACHN renal
BT-549 breast = test system: BT-549 breast
SNB-19 CNS = test system: SNB-19 CNS
U251 CNS = test system: U251 CNS
SK-OV-3 ovarian = test system: SK-OV-3 ovarian
A498 renal = test system: A498 renal
MOLT-4 leukemia = test system: MOLT-4 leukemia
HOP-92 NSCLC = test system: HOP-92 NSCLC
DLD-1 colon = test system: DLD-1 colon
SK-MEL-2 melanoma = test system: SK-MEL-2 melanoma
OVCAR-8 ovarian = test system: OVCAR-8 ovarian
SNB-75 CNS = test system: SNB-75 CNS
NCI-H522 lung = test system: NCI-H522 lung
HCC-2998 colon = test system: HCC-2998 colon
T-47D breast = test system: T-47D breast
SF-539 CNS = test system: SF-539 CNS
RXF 393 renal = test system: RXF 393 renal
SNB-78 CNS = test system: SNB-78 CNS
EKVX NSCLC = test system: EKVX NSCLC
NCI-H460 lung = test system: NCI-H460 lung
SN12C renal = test system: SN12C renal
HS 578T breast = test system: HS 578T breast
DU-145 prostate = test system: DU-145 prostate
NCI-H226 lung = test system: NCI-H226 lung
HCT-15 colon = test system: HCT-15 colon
MCF7 breast = test system: MCF7 breast
MDA-N = test system: MDA-N
NCI/ADR-RES ovarian = test system: NCI/ADR-RES ovarian

## COc1cc2c(c(OC)c1OC)-c1ccc(SC)c(=O)cc1C(NC(=O)c1ccccc1)CC2 (centres undefined)
KM20L2 colon
  TGI: < 0.01 µM
OVCAR-3 ovarian
  TGI: < 0.01 µM
LOX IMVI melanoma
  TGI: 62.2 µM
UO-31 renal
  TGI: > 68.1 µM
HOP-18 NSCLC
  TGI: > 100 µM
UACC-62 melanoma
  TGI: 36.7 µM
CAKI-1 renal
  TGI: 48.5 µM
HT29 colon
  TGI: 1.12 µM
HOP-62 NSCLC
  TGI: 21.1 µM
COLO 205 colon
  TGI: < 0.01 µM
NCI-H23 lung
  TGI: 0.903 µM
OVCAR-4 ovarian
  TGI: 22.2 µM
LXFL 529 NSCLC
  TGI: > 76.5 µM
HCT-116 colon
  TGI: 0.188 µM
786-0 renal
  TGI: 38.3 µM
TK-10 renal
  TGI: 64.4 µM
SK-MEL-5 melanoma
  TGI: < 0.01 µM
SF-268 CNS
  TGI: 53.3 µM
RPMI-8226 leukemia
  TGI: 52.5 µM
CCRF-CEM leukemia
  TGI: > 68.1 µM
PC-3 prostate
  TGI: > 31.6 µM
DMS 273 small cell lung
  TGI: > 40.6 µM
M14 melanoma
  TGI: 30.3 µM
HL-60(TB) leukemia
  TGI: < 0.0127 µM
K-562 leukemia
  TGI: > 68.1 µM
SR leukemia
  TGI: 27 µM
IGROV1 ovarian
  TGI: 49.6 µM
M19-MEL melanoma
  TGI: > 100 µM
UACC-257 melanoma
  TGI: 18.4 µM
MDA-MB-435
  TGI: < 0.01 µM
SW-620 colon
  TGI: 34.7 µM
OVCAR-5 ovarian
  TGI: 58.7 µM
SF-295 CNS
  TGI: < 0.0133 µM
A549 NSCLC
  TGI: 65.9 µM
KM12 colon
  TGI: 0.0357 µM
MALME-3M melanoma
  TGI: 32.7 µM
SK-MEL-28 melanoma
  TGI: > 63.1 µM
MDA-MB-231 breast
  TGI: 1.77 µM
ACHN renal
  TGI: > 63.1 µM
BT-549 breast
  TGI: > 31.6 µM
SNB-19 CNS
  TGI: 29.1 µM
U251 CNS
  TGI: 4.18 µM
SK-OV-3 ovarian
  TGI: 1.94 µM
A498 renal
  TGI: 0.435 µM
MOLT-4 leukemia
  TGI: 43.4 µM
HOP-92 NSCLC
  TGI: 3.79 µM
DLD-1 colon
  TGI: > 100 µM
SK-MEL-2 melanoma
  TGI: < 0.215 µM
OVCAR-8 ovarian
  TGI: 24.6 µM
SNB-75 CNS
  TGI: 4.01 µM
NCI-H522 lung
  TGI: < 0.0316 µM
HCC-2998 colon
  TGI: 0.144 µM
T-47D breast
  TGI: > 100 µM
SF-539 CNS
  TGI: 0.0922 µM
RXF 393 renal
  TGI: 7.88 µM
SNB-78 CNS
  TGI: > 90.9 µM
EKVX NSCLC
  TGI: > 100 µM
NCI-H460 lung
  TGI: 1.62 µM
SN12C renal
  TGI: 52.6 µM
HS 578T breast
  TGI: 5.34 µM

## CC(C)(C)c1cc2c(OC/C=C/c3ccccc3)c(c1)Cc1cc(C(C#N)(OC/C=C/c3ccccc3)OC/C=C/c3ccccc3)cc(c1OC/C=C\c1ccccc1)Cc1cc(C(C)(C)C)cc(c1OC/C=C/c1ccccc1)Cc1cc(C(C#N)(OC/C=C\c3ccccc3)OC/C=C/c3ccccc3)cc(c1OC/C=C\c1ccccc1)C2 (centres undefined)
OVCAR-3 ovarian
  TGI: > 100 µM
LOX IMVI melanoma
  TGI: > 100 µM
UO-31 renal
  TGI: > 100 µM
UACC-62 melanoma
  TGI: > 100 µM
CAKI-1 renal
  TGI: > 100 µM
HT29 colon
  TGI: > 100 µM
HOP-62 NSCLC
  TGI: > 100 µM
COLO 205 colon
  TGI: > 100 µM
NCI-H23 lung
  TGI: > 100 µM
OVCAR-4 ovarian
  TGI: > 100 µM
HCT-116 colon
  TGI: > 100 µM
786-0 renal
  TGI: > 100 µM
TK-10 renal
  TGI: 54.3 µM
DU-145 prostate
  TGI: > 100 µM
SK-MEL-5 melanoma
  TGI: > 100 µM
NCI-H226 lung
  TGI: > 100 µM
SF-268 CNS
  TGI: > 100 µM
RPMI-8226 leukemia
  TGI: > 100 µM
CCRF-CEM leukemia
  TGI: > 100 µM
PC-3 prostate
  TGI: > 100 µM
M14 melanoma
  TGI: > 100 µM
HL-60(TB) leukemia
  TGI: > 100 µM
K-562 leukemia
  TGI: > 100 µM
SR leukemia
  TGI: 49.3 µM
IGROV1 ovarian
  TGI: > 100 µM
HCT-15 colon
  TGI: > 100 µM
UACC-257 melanoma
  TGI: > 100 µM
MDA-MB-435
  TGI: > 100 µM
SW-620 colon
  TGI: > 100 µM
OVCAR-5 ovarian
  TGI: > 100 µM
SF-295 CNS
  TGI: > 100 µM
A549 NSCLC
  TGI: > 100 µM
MCF7 breast
  TGI: > 100 µM
KM12 colon
  TGI: > 100 µM
MALME-3M melanoma
  TGI: > 100 µM
SK-MEL-28 melanoma
  TGI: > 100 µM
MDA-MB-231 breast
  TGI: > 100 µM
ACHN renal
  TGI: > 100 µM
BT-549 breast
  TGI: > 100 µM
SNB-19 CNS
  TGI: > 100 µM
MDA-N
  TGI: > 100 µM
U251 CNS
  TGI: > 100 µM
SK-OV-3 ovarian
  TGI: > 100 µM
A498 renal
  TGI: > 100 µM
MOLT-4 leukemia
  TGI: > 100 µM
HOP-92 NSCLC
  TGI: > 100 µM
SK-MEL-2 melanoma
  TGI: > 100 µM
OVCAR-8 ovarian
  TGI: > 100 µM
SNB-75 CNS
  TGI: > 100 µM
NCI-H522 lung
  TGI: > 100 µM
HCC-2998 colon
  TGI: > 100 µM
T-47D breast
  TGI: > 100 µM
SF-539 CNS
  TGI: > 100 µM
RXF 393 renal
  TGI: > 100 µM
EKVX NSCLC
  TGI: > 100 µM
NCI-H460 lung
  TGI: > 100 µM
SN12C renal
  TGI: > 100 µM
NCI/ADR-RES ovarian
  TGI: > 100 µM
HS 578T breast
  TGI: > 100 µM
